Values after ≈ are worked out from the molar mass of the structure shown. Like-named read-outs stand apart in the source and are kept apart here.
Tests used:
Monastrell grapevine = details: cited from earlier work
[1] = cited from earlier work
B16-F10 cell line [2] = assay: In vitro cytotoxicity assay (MTS); assay type: cell-based; details: Mus musculus, 48 h, B16-F10 cells, 2 days incubation, read-out: IC50 (half inhibitory concentration, cell viability)
Method: Mouse skin melanoma (B16-F10, ATCC CRL-6322) cell line was purchased from the Cell Bank of CIC-UGR. B16-F10 cells were expanded in Eagle's minimum essential medium (EMEM) with Earle's balanced salt solution (EBSS) supplemented with 2 mM glutamine, and 10% foetal bovine serum (FBS), 1% nonessential amino acids (NEAA) and 1 mM sodium pyruvate (NaP) at 37° C. in a humidified atmosphere of 5% CO2.
Cells were detached from culture flasks by trypsinization, centrifuged and resuspended. Cell number and viability were assessed with the trypan-blue dye exclusion test. Then, 1.0·10^4 cells/well were seeded in a 96 flat transparent well and incubated at 37° C. in a humidified atmosphere of 5% CO2. […] After 2 days incubation, cell viability was evaluated by MTS assay using CellTiter 96® AQueous One Solution Reagent (Promega, Madison, WI) according to the manufacturer's instructions. Briefly, 20 μL of AQueous One Solution Reagent was added to each well and after 2 h of incubation, the absorbance at 490 nm was measured with a spectrophotometer (Infinite® 200 PRO NanoQuant, CIC-UGR). […] Each experiment was done in triplicate.
(§1) Statistical comparisons were analysed with GraphPad Prism software (version 6.0) using one-way or two-way ANOVA and Bonferroni's post hoc test. […] The half inhibitory concentrations (IC50) were calculated by the Graph Pad Prism, using the dose-response sigmoidal curves, p<0.05.

[3] = In vitro nano-MeJ protection assays (drops at 50° C., UV-Vis and Raman); assay type: physicochemical; details: dried drops after 24 hours at 50° C.
Method: Both of them were kept at 50° C. during 24 h. At scheduled times, the drops were observed using an iScope (Euromex) microscope, in bright field mode and under 40× objective. After 24 hours, the remained samples were analysed by Raman Spectroscopy (JASCO NRS-5100, Jasco International Co. Ltd, Japan) from CIC-UGR. The excitation line was provided by a diode laser emitting at a wavelength of 785 nm. The detector used is a Peltier cooled charge-couple device (CCD, 1024×256 pixels). Before the measurement, the Raman shift of the spectrometer was calibrated using the 520.7 cm-1 peak of crystalline silicon as standard. Each spectrum corresponds to the average of 3 acquisitions of 100 s each. The spectra were linearly base-line corrected for clarity. The same experiment was carried out by depositing on a crystallizer 30 drops of 100 μL of each sample to determine the ratio of protection. […] Then, the sample was centrifuged (12000 rpm, 10 minutes) to remove the nanoparticles before UV-Vis measurements. The ratio of protection (%) was calculated as MeJfinal/MeJinicial×100. Each test was performed in triplicates.

B16-F10 cell line [4] = details: read-out: MeJ needed to decrease cell viability in a half; same cell line (B16-F10), previous results; cited from earlier work
[5] = test system: Monastrell (Vitis vinifera L.) grapevines; assay: In vivo field experiments on vineyards, stilbene analysis in wines; details: for total stilbene concentration in wines: two applications
Method: The experiments were conducted in a randomized block design, in which five treatments were applied to three replicates, using 10 vines for each replication. Monastrell (Vitis vinifera L.) grapevines from experimental vineyards located in Cehegin (Murcia, Spain): were sprayed with five treatments, in order to evaluate nano-MeJ efficiency in the field. […] 200 mL of the product was foliarly applied to each plant at veraison. A second application was performed after 7 days. Then, when grapes reached their optimal maturity they were harvested and transported to the winery for winemaking. Vinifications were made in triplicate in 50-L stainless steel tanks using 50 kg of grapes, which were destemmed, crushed, and sulfited (8 g SO2/100 kg). Total acidity was corrected to 5.5 g/L with tartaric acid, and selected yeasts were added (Uvaferm VRB, Lallemand, 25 g/hL). The fermentative pomace contact period was 10 days during which the cap was punched down twice a day, and the temperature and must density were recorded. At the end of alcoholic fermentation, wines were pressed at 1.5 bars in a 75 L tank membrane press and packed in bag-in-box for further analysis.
The extraction method used was described by Guerrero et al. with some modifications. Briefly, 5 mL of wine were extracted with 5 mL of diethyl ether to which 25 μL of internal standard (Trans-4-Hydroxistilbene, 98%) were added. Samples were homogeneized with an Ultraturrax T-25 (Jankel Adnand Kunkel, IKA-Labortechnick, Germany) and stirred at 9600 rpm for 1 minute. […]
Stilbenes were identified and quantified by HPLC. Samples were analysed using a Waters2695 system equipped with a mass detector (Acquity QDA Waters). […] Stilbenes were quantified at 320 nm using trans-resveratrol, trans-piceid, piceatannol and ε-viniferin as external standards.
as §1

Raman micro-analysis for MeJ signals [3]: did not show signals assignable to MeJ
SMILES: CC/C=C\CC1C(=O)CCC1CC(=O)OC (racemic) [MeJ, methyl jasmonate]
total stilbenes in wines (Monastrell grapevine; foliar application of 10 mM, vs non-treated (control) plants): significant increase
foliar concentration needed to promote stilbene production in grapes and wines (Monastrell grapevine; previous field experiments): 10 mM
solubility in water [1]: 340 µg/mL (≈ 1520 µM)
IC50 (B16-F10 cell line [2]): 2200 µM
IC50 (B16-F10 cell line [4]): 2600 µM
minimum concentration to observe important effects on stilbenes, elicitor conventionally applied ([5]; foliar application): 10 mM
total stilbene concentration in wines ([5]; foliar spray 5 mM MeJ (MeJ5) at veraison): not enough to produce the same enhancement in stilbene concentration
total stilbene concentration in wines ([5]; foliar spray 10 mM MeJ (MeJ10) at veraison, vs non-treated control): significant (p<0.001) increase

Reference: patent publication US20250089709A1, “CALCIUM PHOSPHATE NANOPARTICLES LOADED WITH JASMONATE TO INDUCE EFFICIENT PLANT DEFENCE RESPONSES” (UNIVERSIDAD DE GRANADA, priority 2021, published 2025)
